Results on 3 compounds are retold here after patent publication US20160355530A1, “HEPATITIS C INHIBITORS AND USES THEREOF” (AbbVie Inc., priority 2010, published 2016).

Where two headings read alike, the source gives them in different places.

One may read the EC50 as the midpoint of the concentration-response curve. For orientation: IC50 means the concentration that gives 50% inhibition.

The test system of assay [1] is HCV 1a-H77 transient subgenomic replicon in Huh-7 derived cell line. In words: microbe, parasite or virus in culture. It is filed as cell-based, HCV genotype 1a. The conditions noted are these: Hepatitis C virus, Huh-7; transient replicon, 5% FBS; read-out: Transient Replicon 1a H77 5% FBS EC50. An outline of the steps: (§1)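 Transient format: T7-transcribed replicon RNA lacking Neo, electroporated into Huh-7-derived cells (5×10^3/well), input RNA checked by luciferase at 4 h. Three-fold compound dilution series, 0.5% DMSO, 4 days at 37° C; EC50 from luciferase signal in lysed cells.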

Assay [2] relates to HCV 1a-H77-C316Y transient subgenomic replicon in Huh-7 derived cell line. In words: microbe, parasite or virus in culture. It is filed as cell-based, HCV genotype 1a. As to conditions: for EC50: Hepatitis C virus, Huh-7, read-out: Transient Replicon 1a H77-C316Y 5% FBS EC50; for Transient Replicon Fold Resistance C316Y/1a: ratio of transient replicon EC50s, C316Y / 1a H77. An outline of the steps: as §1

For assay [3], the system named is chimeric replicon with 2a-J6CF-derived NS5B. In words: microbe, parasite or virus in culture. Type of assay: cell-based, HCV genotype 2a. As to conditions: Hepatitis C virus, read-out: 2a chimera 5% FBS EC50.
Assay [4] has as its system HCV 1b-BB7 subgenomic replicon. Briefly: microbe, parasite or virus in culture. Type of assay: cell-based, HCV genotype 1b. The conditions noted are these: Hepatitis C virus, stable replicon.
Assay [5] has as its system HCV 1a-H77 subgenomic replicon. In words: microbe, parasite or virus in culture. Type of assay: cell-based, HCV genotype 1a. As to conditions: Hepatitis C virus, stable replicon. (A replicon is a self-replicating genome or part of one, used to study replication in cells.)
Assay [6] concerns chimeric replicon with genotype 3a NS5B. Briefly: microbe, parasite or virus in culture. It is filed as cell-based, HCV genotype 3a. The conditions noted are these: Hepatitis C virus, read-out: 3a chimera 5% FBS EC50.
The test system of assay [7] is chimeric replicon with genotype 2b NS5B. In words: microbe, parasite or virus in culture. Type of assay: cell-based, HCV genotype 2b. The conditions noted are these: Hepatitis C virus, read-out: 2b chimera 5% FBS EC50.
The subject of assay [8] is chimeric replicon with genotype 4a NS5B. In words: microbe, parasite or virus in culture. It is filed as cell-based, HCV genotype 4a. As to conditions: Hepatitis C virus, read-out: 4a chimera 5% FBS EC50.
Assay [9] deals with T1, HCV NS5B polymerase 1b BK strain (Hepatitis C virus genotype 1b, UniProt P26663).
T1 construct: six-histidine tag; made in house; host or cells: E. coli
T1 sequence (P26663 2420-2989): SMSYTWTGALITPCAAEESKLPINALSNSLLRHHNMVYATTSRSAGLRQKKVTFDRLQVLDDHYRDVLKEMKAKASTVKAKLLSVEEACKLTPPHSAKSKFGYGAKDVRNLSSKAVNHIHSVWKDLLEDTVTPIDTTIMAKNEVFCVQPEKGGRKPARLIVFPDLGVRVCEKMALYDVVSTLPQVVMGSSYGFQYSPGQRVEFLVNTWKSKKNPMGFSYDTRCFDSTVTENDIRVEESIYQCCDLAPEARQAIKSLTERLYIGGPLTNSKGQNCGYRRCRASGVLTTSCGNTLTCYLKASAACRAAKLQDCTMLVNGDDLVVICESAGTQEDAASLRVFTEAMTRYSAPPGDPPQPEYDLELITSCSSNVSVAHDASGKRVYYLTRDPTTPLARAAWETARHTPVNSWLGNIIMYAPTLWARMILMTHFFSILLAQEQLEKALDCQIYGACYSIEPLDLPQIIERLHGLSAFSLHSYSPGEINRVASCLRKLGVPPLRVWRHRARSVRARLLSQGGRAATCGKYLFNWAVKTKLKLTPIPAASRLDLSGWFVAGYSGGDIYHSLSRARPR
Briefly: HCV NS5B polymerase enzymatic inhibition assay, strain 1b BK. As to conditions: enzyme, strain 1b BK; read-out: HCV Polymerase Strain 1b BK IC50. Type of assay: biochemical. An outline of the steps: (§2)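 Incorporation of [3H]UTP (0.284 μM), alongside 20 μM each CTP and ATP, into RNA copied from a 5 nM 2.1 kb genotype 1b negative-strand template was measured after 3 h at 30° C using purified His-tagged NS5B truncated at residue 570. Product was spermine-precipitated, filtered and scintillation-counted; nonlinear regression gave IC50.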

Assay [10] deals with T2, HCV NS5B polymerase 1a-H77 (Hepatitis C virus genotype 1a, UniProt P27958).
T2 construct: six-histidine tag; made in house; host or cells: E. coli
T2 sequence (P27958 2421-2990): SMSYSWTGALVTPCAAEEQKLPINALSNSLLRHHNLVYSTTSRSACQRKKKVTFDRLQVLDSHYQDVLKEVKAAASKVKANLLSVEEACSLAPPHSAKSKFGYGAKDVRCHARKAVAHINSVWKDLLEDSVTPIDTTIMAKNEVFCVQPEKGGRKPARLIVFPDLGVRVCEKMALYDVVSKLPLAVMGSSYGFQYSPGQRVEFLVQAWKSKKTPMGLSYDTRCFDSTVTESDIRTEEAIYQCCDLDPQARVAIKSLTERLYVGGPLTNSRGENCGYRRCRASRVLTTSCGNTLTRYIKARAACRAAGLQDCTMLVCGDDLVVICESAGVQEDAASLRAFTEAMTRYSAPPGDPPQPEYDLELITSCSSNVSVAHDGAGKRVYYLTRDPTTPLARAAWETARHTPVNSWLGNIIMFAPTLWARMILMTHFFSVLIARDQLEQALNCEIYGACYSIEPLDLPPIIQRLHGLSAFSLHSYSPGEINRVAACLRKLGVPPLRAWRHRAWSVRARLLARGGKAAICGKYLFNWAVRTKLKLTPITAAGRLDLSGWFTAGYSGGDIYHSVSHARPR
In words: biochemical. On the set-up: species or system HCV genotype 1a. As to conditions: enzyme, strain 1a H77; read-out: HCV Polymerase Strain 1a H77 IC50. In short, it runs like this: as §2

In assay [11] the test system is HCV NS5B polymerase 1a-H77-C316Y. Briefly: biochemical. Details: species or system HCV genotype 1a. As to conditions: ratio of enzyme IC50s, 1a H77-C316Y / 1a H77. An outline of the steps:
as §2

Assay [12] addresses T3, HCV NS5B polymerase 1a-H77-C316Y (Hepatitis C virus genotype 1a, UniProt P27958, C2736Y).
T3 construct: six-histidine tag; made in house; host or cells: E. coli
Briefly: biochemical. Details: species or system HCV genotype 1a. An outline of the steps: as §2

The mark [13] stands for this setting: strain 1b BB7, 5% FBS + 40% human plasma, read-out: 1b BB7 5% FBS + 40% Human Plasma EC50.
Where [14] appears, read: strain 1b BB7, 5% FBS, no human plasma, read-out: 1b BB7 5% FBS EC50.
Where [15] appears, read: strain 1b BB7, 5% FBS, read-out: 1b BB7 5% FBS EC50.
The mark [16] stands for this setting: 5% FBS, absence of human plasma, read-out: Stable Replicon 1a H77 5% FBS EC50.
[17] abbreviates: strain 1a H77, 5% FBS + 40% human plasma, read-out: 1a H77 5% FBS + 40% Human Plasma EC50.
The mark [18] stands for this setting: strain 1a H77, 5% FBS, no human plasma, read-out: 1a H77 5% FBS EC50.
[19] abbreviates: strain 1a H77, 5% FBS, read-out: 1a H77 5% FBS EC50.

T3 sequence (P27958 2421-2990 C2736Y): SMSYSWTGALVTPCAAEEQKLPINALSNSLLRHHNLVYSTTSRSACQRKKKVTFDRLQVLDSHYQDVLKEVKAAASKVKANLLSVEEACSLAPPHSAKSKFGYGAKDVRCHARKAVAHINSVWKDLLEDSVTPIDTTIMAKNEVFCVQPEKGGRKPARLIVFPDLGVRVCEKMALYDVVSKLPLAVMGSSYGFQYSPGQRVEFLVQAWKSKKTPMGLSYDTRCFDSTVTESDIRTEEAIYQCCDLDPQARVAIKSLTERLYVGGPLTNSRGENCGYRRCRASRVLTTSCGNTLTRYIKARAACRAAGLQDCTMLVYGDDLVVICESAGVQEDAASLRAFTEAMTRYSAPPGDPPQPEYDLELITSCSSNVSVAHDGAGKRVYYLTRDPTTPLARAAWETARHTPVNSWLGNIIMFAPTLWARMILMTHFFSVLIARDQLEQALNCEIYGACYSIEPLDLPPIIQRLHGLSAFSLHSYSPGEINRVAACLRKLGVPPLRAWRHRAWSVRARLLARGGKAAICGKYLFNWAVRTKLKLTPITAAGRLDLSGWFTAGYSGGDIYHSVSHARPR

As to `CS(=O)(=O)N(CCCCCO)c1cc2oc(-c3ccc(F)cc3)c(-c3ncc[nH]3)c2cc1C1CC1` [Example 88, N-[5-cyclopropyl-2-(4-fluorophenyl)-3-(1H-imidazol-2-yl)-1-benzofuran-6-yl]-N-(5-hydroxypentyl)methanesulfonamide], the EC50 in assay [1] is 1.2 nM; in assay [2], 38.2 nM; in assay [3], 25.3 nM; in [4] (setting [13]) it was 108 nM; in assay [4] (setting [14]), 4.9 nM; in [4] (setting [15]), 4.9 nM. In addition, the EC50 in assay [5] (setting [16]) was determined as 4.1 nM; in assay [5] (setting [17]) it was 119 nM; in [5] (setting [18]) it was 4.1 nM; in assay [5] (setting [19]), 4.1 nM; in [6], 3.2 nM; in [7], 24.5 nM. Moreover, the EC50 in assay [8] was 33.9 nM. Moreover, the “Transient Replicon Fold Resistance C316Y/1a” value in [2] was 32 fold. In addition, the IC50 in assay [9] was found to be 9 nM; in [10] it was 4 nM; in [12] it was 46 nM. Besides, the “C316Y/1a Fold Resistance” value in assay [11] worked out at 12 fold.

For `CS(=O)(=O)N(CC#N)c1cc2oc(-c3ccc(F)cc3)c(-c3ncc[nH]3)c2cc1C1CC1` [Example 63, N-(cyanomethyl)-N-[5-cyclopropyl-2-(4-fluorophenyl)-3-(1H-imidazol-2-yl)-1-benzofuran-6-yl]methanesulfonamide], the EC50 in assay [1] is 75.6 nM; in assay [2], 1900 nM; in assay [3], 131 nM; in assay [4] (setting [13]), 195 nM; in assay [4] (setting [14]), 14.4 nM; in assay [4] (setting [15]), 14.4 nM. For the same compound, the EC50 was determined as 67 nM in assay [5] (setting [16]); 1160 nM in [5] (setting [17]); 67 nM in assay [5] (setting [18]); 67 nM in [5] (setting [19]); 6.8 nM in assay [6]; 108 nM in assay [7]. Besides, in [8], the 50% effective concentration (EC50) is 702 nM. In addition, the “Transient Replicon Fold Resistance C316Y/1a” value in [2] was 25 fold. Further, the IC50 is 47 nM in [9], 4.5 nM in [10] and 2100 nM in [12]. The “C316Y/1a Fold Resistance” value in assay [11] is 470 fold.

In the case of `Cc1ccc(C)n1-c1nc(CCCN(c2cc3oc(-c4ccc(F)cc4)c(-c4ncc[nH]4)c3cc2C2CC2)S(C)(=O)=O)cs1` [Example 62, N-[5-cyclopropyl-2-(4-fluorophenyl)-3-(1H-imidazol-2-yl)-1-benzofuran-6-yl]-N-{3-[2-(2,5-dimethyl-1H-pyrrol-1-yl)-1,3-thiazol-4-yl]propyl}methanesulfonamide], the EC50 was found to be 60.6 nM in assay [1]; 899 nM in assay [2]; 309 nM in [3]; 328 nM in assay [4] (setting [13]); 71 nM in [4] (setting [14]); 71 nM in [4] (setting [15]). In addition, the EC50 in assay [5] (setting [16]) is 88.7 nM; in assay [5] (setting [17]) it was 342 nM; in assay [5] (setting [18]), 88.7 nM; in [5] (setting [19]) it was 88.7 nM; in [6], 49.9 nM; in assay [7] it was 471 nM. Besides, the EC50 in [8] is 364 nM. Moreover, the “Transient Replicon Fold Resistance C316Y/1a” value in assay [2] is 15 fold. In addition, the IC50 is 14 nM in assay [9], 3.9 nM in [10] and 250 nM in assay [12]. Further, the “C316Y/1a Fold Resistance” value in assay [11] is listed as 65 fold.
